The values that follow come from patent EP4667466A1, “PROTAC DEGRADERS OF MLLT1 AND/OR MLLT3” (priority 2024, dated 2025).

The test addresses T1, MLLT1 (Homo sapiens, UniProt Q03111).
T1 construct: endogenous in cells; host or cells: MV4-11 (ATCC CRL-9591)
T1 sequence (Q03111 1-559): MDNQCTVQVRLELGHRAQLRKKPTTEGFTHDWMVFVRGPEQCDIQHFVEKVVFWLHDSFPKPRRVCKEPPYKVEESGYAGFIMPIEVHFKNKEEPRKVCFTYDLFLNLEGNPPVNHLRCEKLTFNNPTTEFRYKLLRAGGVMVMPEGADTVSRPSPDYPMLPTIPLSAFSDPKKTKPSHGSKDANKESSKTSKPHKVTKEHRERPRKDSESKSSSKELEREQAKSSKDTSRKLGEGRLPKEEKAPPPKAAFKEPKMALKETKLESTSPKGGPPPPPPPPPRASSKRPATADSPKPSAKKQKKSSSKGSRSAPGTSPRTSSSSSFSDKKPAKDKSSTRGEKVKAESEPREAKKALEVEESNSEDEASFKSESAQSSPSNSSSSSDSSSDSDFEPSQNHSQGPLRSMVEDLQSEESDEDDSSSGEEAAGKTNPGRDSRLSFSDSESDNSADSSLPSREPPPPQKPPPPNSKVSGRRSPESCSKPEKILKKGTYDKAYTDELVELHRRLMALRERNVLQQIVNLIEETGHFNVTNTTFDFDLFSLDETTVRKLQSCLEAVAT
The test is described as follows: MLLT1 degradation assay (JESS automated chemiluminescent detection) in MV4-11 cells. The class given is cell-based. The conditions noted are these: 24h, with respect to DMSO control. The method, then:
MLLT1 degradation efficacy of compounds was tested in an automated chemiluminescent detection system (JESS, Cat# 004-650). MV4-11 (#CRL-9591, ATCC) cells were seeded at a density of 1.2 million cells/well in a non-treated 6-well cell culture plate in 2.4 mL of complete medium (IMDM + 10% FBS + 1X Penicillin-Streptomycin). 10 mM DMSO stocks were prepared, and cells were treated with three concentrations of test compounds viz. 1000, 100 and 10 nM at a final DMSO concentration of 0.1% and incubated for 24h at 37°C, 5% CO2. Post incubation, cells were centrifuged, washed with HBSS and lysed in 70 uL of RIPA buffer supplemented with Protease inhibitors (sc-24948; Santa Cruz). Subsequently, protein estimation was done using BCA protein assay kit (23225; Pierce). 4 ug protein lysate (4 uL of 1ug/uL lysate) was loaded into each well of the JESS cartridge (SM-WO01; Bio-techne) and the JESS run was performed using 1:900 dilution of anti-human MLLT1 antibody (14893; Cell signaling technology) and 1:1200 dilution of anti-human GAPDH antibody (2118; Cell signaling technology) with anti-rabbit secondary detection module (DM-001; Bio-Techne). Post run, data were analysed using "Compass for SW" software for chemiluminescent detection. The peak area for each band was used for the calculation of MLLT1 degradation with respect to DMSO control. Data is shown as "MLLT1 % degradation". Category A: A ≥ 75% degradation Category B: 50% ≤ B < 75% degradation Category C: 25% ≤ C < 50% degradation Category D: D < 25% degradation Table 1

Some results are limits rather than exact numbers.

The term inhibition denotes how much of the control response was suppressed.

In turn, `Cc1nn(CCCCCCCCNc2cccc3c2C(=O)N(C2CCC(=O)NC2=O)C3=O)c2cc(C(=O)Nc3cc4[nH]c([C@@H]5CCCN5C)cc4cn3)ccc12` (stereo partly drawn) [Example 4, 1-(8-{[2-(2,6-dioxopiperidin-3-yl)-1,3-dioxoisoindol-4-yl]amino}octyl)-3-methyl-N-{2-[(2S)-1-methylpyrrolidin-2-yl]-1H-pyrrolo [3,2-c]pyridin-6-yl}indazole-6-carboxamide] displayed an inhibition at 0.01 µM of less than 25%, an inhibition at 0.1 µM of less than 25% and an inhibition at 1 µM of 50 to 75%.
`Cc1nn(C2CCC(CCCC#Cc3cccc4c3CN(C3CCC(=O)NC3=O)C4=O)CC2)c2cc(C(=O)Nc3cc4[nH]c([C@H]5CCCN5C)cc4cn3)ccc12` (stereo partly drawn) [Example 74, 1-(4-(5-(2-(2,6-dioxopiperidin-3-yl)-1-oxoisoindolin-4-yl)pent-4-yn-1-yl)cyclohexyl)-3-methyl-N-(2-((R)-1-methylpyrrolidin-2-yl)-1H-pyrrolo[3,2-c]pyridin-6-yl)-1H-indazole-6-carboxamide] returned an inhibition at 0.01 µM of 50 to 75%, an inhibition at 0.1 µM of 50 to 75% and an inhibition at 1 µM not below 75%.
Molecule `Cc1nn(CCCCCCCC=C(Cl)c2ccc3c(c2)n(C)c(=O)n3C2CCC(=O)NC2=O)c2cc(C(=O)Nc3cc4[nH]c([C@H]5CCCN5C)cc4cn3)ccc12` (mixture of isomers) [Example 40] displayed an inhibition at 0.01 µM not below 75%, an inhibition at 0.1 µM not below 75% and an inhibition at 1 µM not below 75%.
`Cc1c2ccc(C(=O)Nc3cc4[nH]c([C@H]5CCCN5C)cc4cn3)cc2nn1CCCCCCCCNc1cccc2c1C(=O)N(C1CCC(=O)NC1=O)C2=O` (stereo partly drawn) [Example 5, 2-(8-((2-(2,6-dioxopiperidin-3-yl)-1,3-dioxoisoindolin-4-yl)amino)octyl)-3-methyl-N-(2-((R)-1-methylpyrrolidin-2-yl)-1H-pyrrolo[3,2-c]pyridin-6-yl)-2H-indazole-6-carboxamide] yielded an inhibition at 0.01 µM of 50 to 75%, an inhibition at 0.1 µM of 50 to 75% and an inhibition at 1 µM of 25 to 50%.
In turn, `CN1CCC[C@@H]1c1cc2cnc(NC(=O)c3ccc4c(cnn4CCCCCCCC#Cc4cccc5c4CN(C4CCC(=O)NC4=O)C5=O)c3)cc2[nH]1` (stereo partly drawn) [Example 38, 1-(9-(2-(2,6-dioxopiperidin-3-yl)-1-oxoisoindolin-4-yl)non-8-yn-1-yl)-N-(2-((R)-1-methylpyrrolidin-2-yl)-1H-pyrrolo[3,2-c]pyridin-6-yl)-1H-indazole-5-carboxamide] came in with an inhibition at 0.01 µM of 50 to 75%, an inhibition at 0.1 µM not below 75% and an inhibition at 1 µM of 50 to 75%.
For `CN1CCC[C@@H]1c1cc2cnc(NC(=O)c3ccc4c(c3)c(N3CCC(CN5CCN(c6cc7c(cc6F)C(=O)N(C6CCC(=O)NC6=O)C7=O)CC5)CC3)nn4C)cc2[nH]1` (stereo partly drawn) [Example 6, 3-[4-({4-[2-(2,6-dioxopiperidin-3-yl)-6-fluoro-1,3-dioxoisoindol-5-yl]piperazin-1-yl}methyl)piperidin-1-yl]-1-methyl-N-{2-[(2R)-1-methylpyrrolidin-2-yl]-1H-pyrrolo[3,2-c]pyridin-6-yl}indazole-5-carboxamide], the inhibition at 0.01 µM was 25 to 50%, the inhibition at 0.1 µM is 50 to 75% and the inhibition at 1 µM was not below 75%.
For `Cc1nn(CCCCCCCC#Cc2ccc(F)c3c2CN(C2CCC(=O)NC2=O)C3=O)c2cc(C(=O)Nc3cc4[nH]c([C@H]5CCCN5C)cc4cn3)ccc12` (stereo partly drawn) [Example 52, 1-(9-(2-(2,6-dioxopiperidin-3-yl)-7-fluoro-1-oxoisoindolin-4-yl)non-8-yn-1-yl)-3-methyl-N-(2-((R)-1-methylpyrrolidin-2-yl)-1H-pyrrolo[3,2-c]pyridin-6-yl)-1H-indazole-6-carboxamide] the same measures were not below 75%, not below 75% and not below 75%.
For `Cc1nn(CCCCCCCC#Cc2cccc(C3CCC(=O)NC3=O)c2F)c2cc(C(=O)Nc3cc4[nH]c([C@H]5CCCN5C)cc4cn3)ccc12` (stereo partly drawn) [Example 61, 1-(9-(3-(2,6-dioxopiperidin-3-yl)-2-fluorophenyl)non-8-yn-1-yl)-3-methyl-N-(2-((R)-1-methylpyrrolidin-2-yl)-1H-pyrrolo [3,2-c]pyridin-6-yl)-1H-indazole-6-carboxamide] the same measures were 25 to 50%, not below 75% and not below 75%.
`Cc1nn(CCCCCCCC#Cc2cccc(C3CCC(=O)NC3=O)n2)c2cc(C(=O)Nc3cc4[nH]c([C@H]5CCCN5C)cc4cn3)ccc12` (stereo partly drawn) [Example 62, 1-(9-(6-(2,6-dioxopiperidin-3-yl)pyridin-2-yl)non-8-yn-1-yl)-3-methyl-N-(2-((R)-1-methylpyrrolidin-2-yl)-1H-pyrrolo [3,2-c]pyridin-6-yl)-1H indazole-6-carboxamide] showed an inhibition at 0.01 µM of 50 to 75%, an inhibition at 0.1 µM of 50 to 75% and an inhibition at 1 µM not below 75%.
Regarding `Cc1nn(CCCCCCCC#Cc2ccnc(C(=O)N[C@H]3CCC(=O)NC3=O)c2)c2cc(C(=O)Nc3cc4[nH]c([C@H]5CCCN5C)cc4cn3)ccc12` [Example 43, 1-(9-(2-(((S)-2,6-dioxopiperidin-3-yl)carbamoyl)pyridin-4-yl)non-8-yn-1-yl)-3-methyl-N-(2-((R)-1-methylpyrrolidin-2-yl)-1H-pyrrolo [3,2-c]pyridin-6-yl)-1H-indazole-6-carboxamide], the inhibition at 0.01 µM fell in the range of 25 to 50%, the inhibition at 0.1 µM is 50 to 75% and the inhibition at 1 µM was not below 75%.
As to `Cc1nn(CCCCCOCC#Cc2cccc3c2CN(C2CCC(=O)NC2=O)C3=O)c2cc(C(=O)Nc3cc4[nH]c([C@H]5CCCN5C)cc4cn3)ccc12` (stereo partly drawn) [Example 49, 1-(5-((3-(2-(2,6-dioxopiperidin-3-yl)-1-oxoisoindolin-4-yl)prop-2-yn-1-yl)oxy)pentyl)-3-methyl-N-(2-((R)-1-methylpyrrolidin-2-yl)-1H-pyrrolo[3,2-c]pyridin-6-yl)-1H-indazole-6-carboxamide], the inhibition at 0.01 µM is not below 75%, the inhibition at 0.1 µM is not below 75% and the inhibition at 1 µM is not below 75%.
The molecule `Cc1nn(CCCC2CCN(c3ccc(C(=O)NC4CCC(=O)NC4=O)cc3F)CC2)c2cc(C(=O)Nc3cc4[nH]c([C@H]5CCCN5C)cc4cn3)ccc12` (stereo partly drawn) [Example 28, 1-(3-(1-(4-((2,6-dioxopiperidin-3-yl)carbamoyl)-2-fluorophenyl)piperidin-4-yl)propyl)-3-methyl-N-(2-((R)-1-methylpyrrolidin-2-yl)-1H-pyrrolo[3,2-c]pyridin-6-yl)-1H-indazole-6-carboxamide] registered an inhibition at 0.1 µM of 25 to 50% and an inhibition at 1 µM of 25 to 50%.
Turning to `CCN1CCC[C@@H]1c1cc2cnc(NC(=O)c3ccc4c(C)nn(CCCCCCCC#Cc5cccc6c5CN(C5CCC(=O)NC5=O)C6=O)c4c3)cc2[nH]1` (stereo partly drawn) [Example 48, 1-(9-(2-(2,6-dioxopiperidin-3-yl)-1-oxoisoindolin-4-yl)non-8-yn-1-yl)-N-(2-((R)-1-ethylpyrrolidin-2-yl)-1H-pyrrolo[3,2-c]pyridin-6-yl)-3-methyl-1H-indazole-6-carboxamide], the inhibition at 0.01 µM is 25 to 50%, the inhibition at 0.1 µM was 50 to 75% and the inhibition at 1 µM was not below 75%.
Molecule `Cc1nn(CCCCCCCC#Cc2ccc(F)c3c2CN(C2CCC(=O)NC2=O)C3=O)c2cc(C(=O)Nc3cc4[nH]c([C@H]5CCCN5C)c(Cl)c4cn3)ccc12` (stereo partly drawn) [Example 67, N-(3-chloro-2-((R)-1-methylpyrrolidin-2-yl)-1H-pyrrolo[3,2-c]pyridin-6-yl)-1-(9-(2-(2,6-dioxopiperidin-3-yl)-7-fluoro-1-oxoisoindolin-4-yl)non-8-yn-1-yl)-3-methyl-1H indazole-6-carboxamide] returned an inhibition at 0.01 µM not below 75%, an inhibition at 0.1 µM not below 75% and an inhibition at 1 µM not below 75%.
